Here are results for five sequences from publication PMC2939023, “Attenuated T Cell Responses to a High-Potency Ligand In Vivo” (PLoS Biology, 2010).

For orientation: EC50 means the concentration giving half of the maximal effect.

Entries after “also recorded” stand apart in the source; their conditions may differ. Where no end group is shown, it is not given here.

Series [1] concerns 5C.C7 RAG2−/− lymphocytes. The series is classed as cell-based, mouse. The conditions noted are these: 3 h. On the procedure:
Cells were cultured in a 37°C humidified chamber with 5% C0_2 in complete RPMI1640 (supplemented with 10% FCS, […], 100 U/mL penicillin and streptomycin, 2 µM 2-mercaptoethanol). Single-cell suspensions were prepared from lymph nodes harvested from 5C.C7 RAG2-deficient mice (routinely >90% Vα11+Vβ3+ by flow cytometry) and stimulated in triplicate in 96-well round-bottom plates with irradiated (2,000 rad) B10.A splenocytes and the indicated peptides for 60 h. Proliferation was monitored by the addition of ^3H-methyl-thymidine (1 µCi/well). Cells were harvested onto glass-fiber filters using a Tomtec harvester, and filters were counted using a MicroBeta scintillation counter (Perkin-Elmer).

A further series concerns 5C.C7 T cells. Put plainly: In vivo antigen persistence (division of later transferred 5C.C7 T cells). More on the design: species or system mouse. Particulars: peptide injected 4, 2, 1, 0 wk before transfer; division at 48 h; in words. From the text:
We addressed potential differential in vivo antigen persistence by injecting MCC or K5 peptide at various times prior to transfer of CFSE-labeled 5C.C7 T cells (Figure S7). In this experiment, the extent of division of the transferred T cells serves as a readout of amount of antigen present. […] We then considered the possibility that the blunted responses were occurring because the amount of K5 pMHC complexes was limiting in vivo. In order to directly examine the stimulatory function of in vivo–pulsed APCs, we used irradiated splenic DCs isolated from mice immunized with the different peptides to activate naïve 5C.C7 T cells in vitro, without the addition of exogenous peptide (Figure 2B,C).
Supplementary file pbio.1000481.s007.eps: Figure S7 MCC and K5 peptides persist equally in vivo. B10.A mice were immunized with the indicated peptides at 4, 2, 1, and 0 wk before adoptive transfer of CFSE-labeled 5C.C7 T cells. 5C.C7 T cell division was analyzed at 48 h after transfer as a measure of peptide antigen persistence over time. All histograms are gated on CD4^+CD45.1^+ 5C.C7 T cells. Data shown are representative of two mice per condition and two experiments. (0.99 MB EPS) Click here for additional data file.

In a further series the test system is OT-1 TCR. The conditions noted are these: OT-1 TCR ligands, Listeria monocytogenes; in words; ref [25]; cited from earlier work. The source says: The reason we observed attenuation at the high end of the ligand potency spectrum may be because we were able to examine T cell responses to a superagonist peptide, which possibly exceeds a ligand potency threshold at which T cell attenuation is observed. Attempts to find other strong 5C.C7 TCR ligands, which would facilitate examination o ...

ANERADLIAYFKAATKF [K5]: in series [1], the EC50 was 17.5 nM. For the same sequence, the “In vivo peptide antigen persistence” value with 5C.C7 T cells was “persist equally and for a few weeks in vivo”.
On to ANERADLIAYLKQASK [102S], for which, in series [1], a half-maximal effect (EC50) was put at 160 nM. In other words, the sub-micromolar range.
In series [1], “ANERADLIAYLKQATK [MCC, moth cytochrome c (MCC) peptide]” returned an EC50 of 37.8 nM. Moreover, in the series with 5C.C7 T cells, the “In vivo peptide antigen persistence” value is “persist equally and for a few weeks in vivo”.
Turning to ANERADLIAYPKAATKF [K3], a half-maximal response in series [1] (EC50) required 24.9 nM. That is a double-digit nanomolar value.
In the case of SIINFEKL [natural OT-1 TCR ligand], the “Potency of T cell responses in vitro and in vivo” value in the series with OT-1 TCR was “induced the most robust response; also recorded: exhibited the most potent responses in vitro and in vivo”.
